Measurements reported in PMC7126871 (Bioorganic & Medicinal Chemistry Letters, 2012).

What was measured:
[1] = pH <7; cited from earlier work
[2] = tested on: cancer cell lines; conditions: cited from earlier work
[3] = tested on: panel of RNA viruses; type: cell-based
[4] = tested on: Coxsackie A strains A7 or A21; assay: organism not typed; type: cell-based; conditions: MRC5, read-out: EC50 Coxsackie A
[5] = tested on: replicon cells; conditions: human
[6] = tested on: HCV (1b) subgenomic replicon; type: cell-based

For `C[C@@]1(n2cnc3c(N)ncnc32)O[C@H](CO)[C@@H](O)[C@H]1O` [1′-C-Me adenosine], which “stability in aqueous solutions” value [1] is on record?
The value was “rapidly degraded”.

Which “cytotoxicity (in words)” value [2] does the source give for `Nc1ncnc2c1ccn2[C@@H]1O[C@H](CO)[C@@H](O)[C@H]1O` [Compound 1, 7-Deazaadenosine] here?
Its value is “cytotoxic”.

With `N#C[C@@]1(c2ccc3c(N)ncnn23)O[C@H](CO)[C@@H](O)[C@H]1O` [Compound 3a] as the compound, how does the “antiviral activity against panel of RNA viruses (in words)” value [3] read?
Its value is “broader spectrum activity”.

And the EC50 [4]?
The EC50 was over 30 µM.

Which results are given for `C[C@@]1(c2ccc3c(N)ncnn23)O[C@H](CO)[C@@H](O)[C@H]1O` [Compound 3b]?
antiviral activity against panel of RNA viruses (in words) [3]: reduced potency and a narrower spectrum of antiviral activity; CC50 [5]: > 89 µM; EC50 [4]: > 30 µM

With `C=C[C@@]1(c2ccc3c(N)ncnn23)O[C@H](CO)[C@@H](O)[C@H]1O` [Compound 3c] as the compound, how does the “antiviral activity against panel of RNA viruses (in words)” value [3] read?
Its value is “reduced potency and a narrower spectrum of antiviral activity”.

What about the EC50 [4] of the same compound?
The EC50 was over 30 µM.

What does the source list for `C#C[C@@]1(c2ccc3c(N)ncnn23)O[C@H](CO)[C@@H](O)[C@H]1O` [Compound 3d]?
antiviral activity against panel of RNA viruses (in words) [3]: no activity; EC50 [4]: > 30 µM

For `CC(C)(C)C(=O)SCCOP(=O)(OCCSC(=O)C(C)(C)C)OC[C@H]1O[C@@](C#N)(c2ccc3c(N)ncnn23)[C@H](O)[C@@H]1O` [Compound 9a], which “replicon activity compared to the parent nucleosides (in words)” value [6] is on record?
Its value is “markedly enhanced replicon activity”.

Which results are given for `CC(C)(C)C(=O)SCCOP(=O)(OCCSC(=O)C(C)(C)C)OC[C@H]1O[C@@](C)(c2ccc3c(N)ncnn23)[C@H](O)[C@@H]1O` [Compound 9b]?
replicon activity compared to the parent nucleosides (in words) [6]: markedly enhanced replicon activity; selectivity index (CC50/EC50) [6]: less than 10 fold

Which “selectivity index (CC50/EC50)” value [6] does the source give for `C=C[C@@]1(c2ccc3c(N)ncnn23)O[C@H](COP(=O)(OCCSC(=O)C(C)(C)C)OCCSC(=O)C(C)(C)C)[C@@H](O)[C@H]1O` [Compound 9c] here?
Its value is “less than 10 fold”.

For `C#C[C@@]1(c2ccc3c(N)ncnn23)O[C@H](COP(=O)(OCCSC(=O)C(C)(C)C)OCCSC(=O)C(C)(C)C)[C@@H](O)[C@H]1O` [Compound 9d], which “selectivity index (CC50/EC50)” value [6] is on record?
The value was “less than 10 fold”.
